Assay: cn = amount concentration of the nth substance listed, in mol/dm3
Details: 101.3 kPa, Liquid, Taylor dispersion method

OC[C@H]1O[C@@H]2O[C@H]3[C@H](O)[C@@H](O)[C@@H](O[C@H]4[C@H](O)[C@@H](O)[C@@H](O[C@H]5[C@H](O)[C@@H](O)[C@@H](O[C@H]6[C@H](O)[C@@H](O)[C@@H](O[C@H]7[C@H](O)[C@@H](O)[C@@H](O[C@H]1[C@H](O)[C@H]2O)O[C@@H]7CO)O[C@@H]6CO)O[C@@H]5CO)O[C@@H]4CO)O[C@@H]3CO [α-cyclodextrin] + O
binary diffusion coefficient [m2/s]
Details | c1 = 0.002 | c1 = 0.004 | c1 = 0.006 | c1 = 0.008 | c1 = 0.01
298.15 K | 3.52e-10 | 3.5e-10 | 3.49e-10 | 3.47e-10 | 3.46e-10
303.15 K | 4.07e-10 | 4.04e-10 | 4.03e-10 | 4.01e-10 | 3.98e-10
308.15 K | 4.38e-10 | 4.36e-10 | 4.35e-10 | 4.34e-10 | 4.31e-10
312.15 K | 5.02e-10 | 4.98e-10 | 4.88e-10 | 4.78e-10 | 4.72e-10
